Test results: patent US20100179093A1, “Neoropeptide-2-Receptor (Y-2R) Agonists” (priority 2008, published 2010)
pEC50: −log10 of the molar value.

Columns and labels:
[1] = tested on: hypothalamic slices; settings: hypothalamic slices in vitro; cited from earlier work
[2] = target: T1, Y5R (Homo sapiens, UniProt Q15761); assay: CaFlux Assay (FLIPR), Y5R; assay type: cell-based; settings: for Emax: read-out: Y5R FLIPR, percentage in parentheses under the EC50;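 on Emax: percent of the maximal response of the positive control agonist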
T1 sequence (Q15761 1-445): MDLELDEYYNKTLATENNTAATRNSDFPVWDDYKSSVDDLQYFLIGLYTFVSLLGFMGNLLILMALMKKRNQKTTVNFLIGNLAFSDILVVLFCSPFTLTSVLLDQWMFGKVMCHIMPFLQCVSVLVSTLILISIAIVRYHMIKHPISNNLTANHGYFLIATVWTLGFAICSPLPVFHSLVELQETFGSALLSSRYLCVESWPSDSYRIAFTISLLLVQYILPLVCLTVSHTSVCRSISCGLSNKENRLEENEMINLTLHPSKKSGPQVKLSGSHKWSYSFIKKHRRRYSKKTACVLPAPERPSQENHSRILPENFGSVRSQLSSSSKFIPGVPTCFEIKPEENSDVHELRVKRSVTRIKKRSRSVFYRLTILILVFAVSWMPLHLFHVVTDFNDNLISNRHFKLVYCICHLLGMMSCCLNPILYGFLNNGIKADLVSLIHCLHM

[3] = target: T2, hNPY2R (Homo sapiens, UniProt P49146); assay: CaFlux Assay (FLIPR), Y2R; assay type: cell-based; set-up: expressed in transfected cells; host or cells: HEK-293 stably expressing G protein chimera Gaqi9
T2 sequence (P49146 1-381): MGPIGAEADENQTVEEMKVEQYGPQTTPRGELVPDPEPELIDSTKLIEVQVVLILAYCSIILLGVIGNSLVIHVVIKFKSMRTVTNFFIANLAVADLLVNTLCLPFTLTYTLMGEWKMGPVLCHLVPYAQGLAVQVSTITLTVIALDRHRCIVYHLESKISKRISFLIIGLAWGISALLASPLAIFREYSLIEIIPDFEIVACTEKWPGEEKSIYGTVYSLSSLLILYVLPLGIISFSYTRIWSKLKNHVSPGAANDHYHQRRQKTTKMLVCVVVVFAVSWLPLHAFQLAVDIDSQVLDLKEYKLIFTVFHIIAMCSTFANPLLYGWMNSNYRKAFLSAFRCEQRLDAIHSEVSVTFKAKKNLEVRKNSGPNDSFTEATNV

[4] = target: T2, hNPY2R; assay: cAMP Agonist Assay, HEK293/hNPY2R cells; assay type: cell-based; set-up: expressed in transfected cells; host or cells: HEK293/hNPY2R (G418 selection)
Procedure: On the first day, medium was discarded, and the monolayer cells were washed with 10 mL PBS per flask (T225). […] The flask was gently tapped and the cell suspension was pooled. Each flask was rinsed with 10 mL plating medium and centrifuged at 1000 rpm for 5 min. The suspension was pooled and counted. The suspension was resuspended in plating medium at a density of 2.0×10^5 cells/mL for HEK293/hNPY2R. 50 microliters of cells (HEK293/hNPY2R-10,000 cells/well) were transferred into the 384-well plate using Multi-drop dispenser. The plates were incubated at 37° C. overnight. […] The media and reagents were allowed to come to room temperature. Before the dilutions were prepared, the stock solution of stimulating compound in dimethyl sulphoxide (DMSO, Sigma, cat #D2650) was allowed to warm up to 32 C for 5-10 min. […] The cell medium was tapped off with a gentle inversion of the cell plate on a paper towel. 50 μL of stimulation medium was placed per well (each concentration done in four replicates). The plates were incubated at room temperature for 30 min, and the cells were checked under a microscope for toxicity. After 30 minutes of treatment, the stimulation media was discarded and 50 mL/well of Assay Lysis Buffer (provided in the Tropix kit) was added. The plates were incubated for 45 min@37° C. 20 μL of the lysate was transferred from stimulation plates into the pre-coated antibody plates (384-well) from the Tropix kit. 10 μL of AP conjugate and 20 μL of anti-cAMP antibody was added. The plates were incubated at room temperature while shaking for 1 hour. The plates were then washed 5 times with Wash Buffer, 70 μL per well for each wash. The plates were tapped to dry. 30 μL/well of CSPD/Saphire-II RTU substrate/enhancer solution was added and incubated for 45 min @ RT (shake). Signal for 1 sec/well in a Luminometer.

[5] = target: T3, Y1R (Homo sapiens, UniProt P25929); assay: CaFlux Assay (FLIPR), Y1R; assay type: cell-based
T3 sequence (P25929 1-384): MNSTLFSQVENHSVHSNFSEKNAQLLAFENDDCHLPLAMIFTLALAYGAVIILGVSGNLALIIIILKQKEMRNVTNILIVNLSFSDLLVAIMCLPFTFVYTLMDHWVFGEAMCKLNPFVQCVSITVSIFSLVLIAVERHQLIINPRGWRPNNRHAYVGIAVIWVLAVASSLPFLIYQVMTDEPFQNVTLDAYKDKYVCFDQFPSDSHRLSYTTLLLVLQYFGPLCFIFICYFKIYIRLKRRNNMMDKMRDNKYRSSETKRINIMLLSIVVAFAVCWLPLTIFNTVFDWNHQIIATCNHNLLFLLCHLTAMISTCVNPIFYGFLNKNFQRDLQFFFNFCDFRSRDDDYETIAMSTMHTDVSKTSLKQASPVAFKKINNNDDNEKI

[6] = target: Y4R (Homo sapiens, UniProt P50391); assay: CaFlux Assay (FLIPR), Y4R; assay type: cell-based
Sequence of Y4R (P50391 whole entry): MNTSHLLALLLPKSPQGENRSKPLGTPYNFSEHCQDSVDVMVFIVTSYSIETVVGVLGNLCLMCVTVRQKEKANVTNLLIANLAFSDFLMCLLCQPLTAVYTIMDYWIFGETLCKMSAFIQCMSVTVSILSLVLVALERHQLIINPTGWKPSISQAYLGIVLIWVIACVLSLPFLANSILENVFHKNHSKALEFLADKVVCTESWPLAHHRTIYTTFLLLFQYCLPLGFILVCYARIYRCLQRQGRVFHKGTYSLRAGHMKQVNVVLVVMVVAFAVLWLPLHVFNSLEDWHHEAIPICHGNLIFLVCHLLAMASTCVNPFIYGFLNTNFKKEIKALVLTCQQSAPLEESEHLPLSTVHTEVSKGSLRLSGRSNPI

Structure (SMILES): N=C(N)NCCC[C@H](NC(=O)CC1(CC(=O)N2CCN(C3c4ccccc4NC(=O)c4ccccc43)CC2)CCCC1)C(=O)NCCn1c(=O)n(-c2ccccc2)n(-c2ccccc2)c1=O (stereo partly drawn) [BIIE0246]
- NPY release [1]: increases NPY release

Structure (SMILES): CCCCCCCCCCCCCCCCCCCC(=O)N[C@@H](CCC(=O)N[C@@H](CCC(=O)NCCCC[C@H](NC(=O)[C@@H](N)[C@@H](C)CC)C(=O)N1CCN(c2ccc3ncn(CC(=O)N[C@@H](CCCNC(=N)N)C(=O)N[C@@H](Cc4c[nH]cn4)C(=O)N[C@@H](Cc4ccc(O)cc4)C(=O)N[C@@H](CC(C)C)C(=O)N[C@@H](CC(N)=O)C(=O)N[C@@H](Cc4c[nH]c5ccccc45)C(=O)N[C@H](C(=O)N[C@H](C(=O)N[C@@H](CCCNC(=N)N)C(=O)N[C@@H](CCC(N)=O)C(=O)N(C)[C@@H](CCCNC(=N)N)C(=O)N[C@@H](Cc4ccc(O)cc4)C(N)=O)[C@@H](C)O)C(C)C)c(=O)c3c2)CC1)C(=O)O)C(=O)O [Example 31]
- pEC50 [2]: 6.20
- Emax [2]: 60%
- pEC50 [3]: 10.04
- pEC50 [4]: 10.15
- pEC50 [5]: < 5.30
- pEC50 [6]: < 5.30

Structure (SMILES): CCCCCCCCCCCCCCCC(=O)NCCC(=O)N[C@@H](CCC(=O)NCCCC[C@H](NC(=O)[C@@H](N)[C@@H](C)CC)C(=O)N1CCN(c2ccc3ncn(CC(=O)N[C@@H](CCCNC(=N)N)C(=O)N[C@@H](Cc4c[nH]cn4)C(=O)N[C@@H](Cc4ccc(O)cc4)C(=O)N[C@@H](CC(C)C)C(=O)N[C@@H](CC(N)=O)C(=O)N[C@@H](Cc4c[nH]c5ccccc45)C(=O)N[C@H](C(=O)N[C@H](C(=O)N[C@@H](CCCNC(=N)N)C(=O)N[C@@H](CCC(N)=O)C(=O)N(C)[C@@H](CCCNC(=N)N)C(=O)N[C@@H](Cc4ccc(O)cc4)C(N)=O)[C@@H](C)O)C(C)C)c(=O)c3c2)CC1)C(=O)O [Example 26]
- pEC50 [2]: 6.89
- Emax [2]: 70%
- pEC50 [3]: 10.35
- pEC50 [4]: 9.82
- pEC50 [5]: < 5.30
- pEC50 [6]: < 5.30

Structure (SMILES): CCCCCCCCCCCCCCCC(=O)NCCCCCC(=O)NCCCC[C@H](NC(=O)[C@@H](N)[C@@H](C)CC)C(=O)N1CCN(c2ccc3ncn(CC(=O)N[C@@H](CCCNC(=N)N)C(=O)N[C@@H](Cc4c[nH]cn4)C(=O)N[C@@H](Cc4ccc(O)cc4)C(=O)N[C@@H](CC(C)C)C(=O)N[C@@H](CC(N)=O)C(=O)N[C@@H](Cc4c[nH]c5ccccc45)C(=O)N[C@H](C(=O)N[C@H](C(=O)N[C@@H](CCCNC(=N)N)C(=O)N[C@@H](CCC(N)=O)C(=O)N(C)[C@@H](CCCNC(=N)N)C(=O)N[C@@H](Cc4ccc(O)cc4)C(N)=O)[C@@H](C)O)C(C)C)c(=O)c3c2)CC1 [Example 18]
- pEC50 [2]: 5.93
- pEC50 [3]: 10.92
- pEC50 [4]: 9.74
- pEC50 [5]: < 5.30
- pEC50 [6]: < 5.30
